# Source: US11331299B2, “Medicinal use of serrulatane diterpenes” (The University of Sydney, priority 2016, dated 2022)
# Where two headings read alike, the source gives them in different places.
# System: 280 human cancer cell lines
# Assay: OncoPanel cell proliferation assay (10-day)
# Format: cell-based
# Settings: Homo sapiens; for EC50: read-out: Cell Count EC50; for GI50: read-out: Cell Count GI50; for IC50: read-out: Cell Count IC50
# [1] = Caov-3, CaOV3, Female GU - Ovary
# [2] = ChaGo-K-1, ChaGoK1, Lung - NSCLC
# [3] = D341 Med, CNS - Medulloblastoma
# [4] = Detroit 562, Detroit 562, Head and Neck
# [5] = DoTc2-4510, DoTc2 4510, Lymphoma
# [6] = G292, G-292, clone A141B1, Soft Tissue - Osteosarcoma
# [7] = HEL 92.1.7, HEL-92-1-7, Leukemia
# [8] = HOS, Soft Tissue - Osteosarcoma
# [9] = HT-1080, HT-1080, Soft Tissue - Sarcoma
# [10] = HUH-6-clone5, HUH-6 Clone 5, Liver
# [11] = Hs 821.T, Soft Tissue - Sarcoma
# [12] = Hs 888.Sk, Soft Tissue - Osteosarcoma
compound,measurement,setting,value
"CC(C)=CCC[C@H](C)[C@@H]1CC[C@@H](C)c2c1cc(C)c(O)c2O [Compound 4, 7,8-dihydroxyserrulat-14-ene]",EC50,[1],10.2 µM
same,GI50,[1],10.2 µM
same,IC50,[1],10.3 µM
same,EC50,"Capan-2, Capan-2, Pancreas",24.8 µM
same,GI50,"Capan-2, Capan-2, Pancreas",24.7 µM
same,IC50,"Capan-2, Capan-2, Pancreas",24.8 µM
same,EC50,[2],8.92 µM
same,GI50,[2],8.82 µM
same,IC50,[2],8.92 µM
same,EC50,[3],8.57 µM
same,GI50,[3],8.4 µM
same,IC50,[3],8.57 µM
same,EC50,"DB, Lymphoma",3.85 µM
same,GI50,"DB, Lymphoma",3.84 µM
same,IC50,"DB, Lymphoma",3.85 µM
same,EC50,"DBTRG-05MG, CNS - Glioma",17.6 µM
same,GI50,"DBTRG-05MG, CNS - Glioma",17.4 µM
same,IC50,"DBTRG-05MG, CNS - Glioma",17.6 µM
same,EC50,"DK-MG, CNS - Glioma",17.2 µM
same,GI50,"DK-MG, CNS - Glioma",16.4 µM
same,IC50,"DK-MG, CNS - Glioma",17.2 µM
same,EC50,"DLD-1, DLD-1, Colon",15.7 µM
same,GI50,"DLD-1, DLD-1, Colon",15.7 µM
same,IC50,"DLD-1, DLD-1, Colon",15.7 µM
same,EC50,"DMS-53, DMS53, Lung - SCLC",8.95 µM
same,GI50,"DMS-53, DMS53, Lung - SCLC",8.6 µM
same,IC50,"DMS-53, DMS53, Lung - SCLC",8.95 µM
same,EC50,"DMS-114, DMS114, Lung - SCLC",11.5 µM
same,GI50,"DMS-114, DMS114, Lung - SCLC",11.4 µM
same,IC50,"DMS-114, DMS114, Lung - SCLC",11.6 µM
same,EC50,"DOHH-2, DOHH-2, Lymphoma",2.24 µM
same,GI50,"DOHH-2, DOHH-2, Lymphoma",2.24 µM
same,IC50,"DOHH-2, DOHH-2, Lymphoma",2.24 µM
same,EC50,"DU-145, DU145, Prostate",18.1 µM
same,GI50,"DU-145, DU145, Prostate",18.1 µM
same,IC50,"DU-145, DU145, Prostate",18.1 µM
same,EC50,"Daoy, CNS - Medulloblastoma",3.19 µM
same,GI50,"Daoy, CNS - Medulloblastoma",3.19 µM
same,IC50,"Daoy, CNS - Medulloblastoma",3.19 µM
same,EC50,"Daudi, Lymphoma",2.28 µM
same,GI50,"Daudi, Lymphoma",2.28 µM
same,IC50,"Daudi, Lymphoma",2.28 µM
same,EC50,[4],25 µM
same,GI50,[4],25 µM
same,IC50,[4],25 µM
same,EC50,[5],9.23 µM
same,GI50,[5],9.09 µM
same,IC50,[5],9.23 µM
same,EC50,"EB2, Lymphoma",8.35 µM
same,GI50,"EB2, Lymphoma",8.32 µM
same,IC50,"EB2, Lymphoma",8.38 µM
same,EC50,"EB-3, Lymphoma",3.93 µM
same,GI50,"EB-3, Lymphoma",3.93 µM
same,IC50,"EB-3, Lymphoma",3.93 µM
same,EC50,"EFM-19, EFM-19, Breast",11.9 µM
same,GI50,"EFM-19, EFM-19, Breast",11.3 µM
same,IC50,"EFM-19, EFM-19, Breast",11.9 µM
same,EC50,"EM-2, Leukemia",3.99 µM
same,GI50,"EM-2, Leukemia",4 µM
same,IC50,"EM-2, Leukemia",4 µM
same,EC50,"FaDu, Head and Neck",8.28 µM
same,GI50,"FaDu, Head and Neck",8.28 µM
same,IC50,"FaDu, Head and Neck",8.28 µM
same,EC50,[6],6.23 µM
same,GI50,[6],6.07 µM
same,IC50,[6],6.25 µM
same,EC50,"G-361, G-361, Skin (Melanoma)",13.8 µM
same,GI50,"G-361, G-361, Skin (Melanoma)",13.8 µM
same,IC50,"G-361, G-361, Skin (Melanoma)",13.9 µM
same,EC50,"G-401, G-401, Kidney",8.08 µM
same,GI50,"G-401, G-401, Kidney",8.05 µM
same,IC50,"G-401, G-401, Kidney",8.08 µM
same,EC50,"GA-10, GA-10, Lymphoma",1.23 µM
same,GI50,"GA-10, GA-10, Lymphoma",1.23 µM
same,IC50,"GA-10, GA-10, Lymphoma",1.23 µM
same,EC50,"H4, CNS - Glioma",13 µM
same,GI50,"H4, CNS - Glioma",13 µM
same,IC50,"H4, CNS - Glioma",13 µM
same,EC50,"HCT-15, HCT-15, Colon",13.4 µM
same,GI50,"HCT-15, HCT-15, Colon",13.4 µM
same,IC50,"HCT-15, HCT-15, Colon",13.4 µM
same,EC50,"HCT-116, HCT-116, Colon",10.3 µM
same,GI50,"HCT-116, HCT-116, Colon",10.3 µM
same,IC50,"HCT-116, HCT-116, Colon",10.3 µM
same,EC50,"HEC-1-A, Female GU - Uterus",12.3 µM
same,GI50,"HEC-1-A, Female GU - Uterus",12.2 µM
same,IC50,"HEC-1-A, Female GU - Uterus",12.3 µM
same,EC50,[7],4.05 µM
same,GI50,[7],4.05 µM
same,IC50,[7],4.05 µM
same,EC50,"HLE, Liver",7.24 µM
same,GI50,"HLE, Liver",7.15 µM
same,IC50,"HLE, Liver",7.24 µM
same,EC50,"HLF, Liver",8.72 µM
same,GI50,"HLF, Liver",8.7 µM
same,IC50,"HLF, Liver",8.74 µM
same,EC50,"HMCB, Skin (Melanoma)",9.49 µM
same,GI50,"HMCB, Skin (Melanoma)",9.38 µM
same,IC50,"HMCB, Skin (Melanoma)",9.49 µM
same,EC50,[8],3.08 µM
same,GI50,[8],3.08 µM
same,IC50,[8],3.08 µM
same,EC50,"HPAF-II, Pancreas",12.4 µM
same,GI50,"HPAF-II, Pancreas",12.4 µM
same,IC50,"HPAF-II, Pancreas",12.5 µM
same,EC50,"HT1197, HT-1197, Bladder",15.6 µM
same,GI50,"HT1197, HT-1197, Bladder",15.2 µM
same,IC50,"HT1197, HT-1197, Bladder",15.6 µM
same,EC50,"HT, Lymphoma",4.49 µM
same,GI50,"HT, Lymphoma",4.46 µM
same,IC50,"HT, Lymphoma",4.49 µM
same,EC50,"HT-3, Female GU - Cervix",14.5 µM
same,GI50,"HT-3, Female GU - Cervix",14.3 µM
same,IC50,"HT-3, Female GU - Cervix",14.5 µM
same,EC50,"HT-29, HT-29, Colon",17 µM
same,GI50,"HT-29, HT-29, Colon",17 µM
same,IC50,"HT-29, HT-29, Colon",17 µM
same,EC50,[9],4.42 µM
same,GI50,[9],4.42 µM
same,IC50,[9],4.42 µM
same,EC50,"HT-1376, HT1376, Bladder",14.1 µM
same,GI50,"HT-1376, HT1376, Bladder",13.8 µM
same,IC50,"HT-1376, HT1376, Bladder",14.1 µM
same,EC50,[10],9.63 µM
same,GI50,[10],9.46 µM
same,IC50,[10],9.63 µM
same,EC50,"HeLa, Female GU - Cervix",21.1 µM
same,GI50,"HeLa, Female GU - Cervix",21.1 µM
same,IC50,"HeLa, Female GU - Cervix",21.1 µM
same,EC50,"HepG2, HepG2, Liver",25.6 µM
same,GI50,"HepG2, HepG2, Liver",25.6 µM
same,IC50,"HepG2, HepG2, Liver",25.7 µM
same,EC50,"Hs 229.T, Lung - NSCLC",25.9 µM
same,GI50,"Hs 229.T, Lung - NSCLC",25.2 µM
same,IC50,"Hs 229.T, Lung - NSCLC",26.3 µM
same,EC50,"Hs 294T, Skin (Melanoma)",8.33 µM
same,GI50,"Hs 294T, Skin (Melanoma)",8.23 µM
same,IC50,"Hs 294T, Skin (Melanoma)",8.33 µM
same,EC50,"Hs 445, Hs 445, Lymphoma",5.8 µM
same,GI50,"Hs 445, Hs 445, Lymphoma",5.74 µM
same,IC50,"Hs 445, Hs 445, Lymphoma",5.8 µM
same,EC50,"Hs 611.T, Lymphoma",5.11 µM
same,GI50,"Hs 611.T, Lymphoma",5.05 µM
same,IC50,"Hs 611.T, Lymphoma",5.11 µM
same,EC50,"Hs 683, Hs 683, CNS - Glioma",24.5 µM
same,GI50,"Hs 683, Hs 683, CNS - Glioma",24.3 µM
same,IC50,"Hs 683, Hs 683, CNS - Glioma",24.6 µM
same,EC50,"Hs 688(A).T, Skin (Melanoma)",7.43 µM
same,GI50,"Hs 688(A).T, Skin (Melanoma)",6.88 µM
same,IC50,"Hs 688(A).T, Skin (Melanoma)",7.68 µM
same,EC50,"Hs746T, HS 746T, Stomach",20 µM
same,GI50,"Hs746T, HS 746T, Stomach",17.1 µM
same,IC50,"Hs746T, HS 746T, Stomach",20 µM
same,EC50,"Hs766T, Hs 766T, Pancreas",9.34 µM
same,GI50,"Hs766T, Hs 766T, Pancreas",9.08 µM
same,IC50,"Hs766T, Hs 766T, Pancreas",9.34 µM
same,EC50,[11],12.6 µM
same,GI50,[11],9.99 µM
same,IC50,[11],12.9 µM
same,EC50,[12],12.3 µM
same,GI50,[12],12.1 µM
same,IC50,[12],12.7 µM
same,EC50,"Hs 934.T, Skin (Melanoma)",11.1 µM
same,GI50,"Hs 934.T, Skin (Melanoma)",10.2 µM
same,IC50,"Hs 934.T, Skin (Melanoma)",11.6 µM
same,EC50,"Hs 936.T(C1), Skin (Melanoma)",9.1 µM
same,GI50,"Hs 936.T(C1), Skin (Melanoma)",10.2 µM
same,IC50,"Hs 936.T(C1), Skin (Melanoma)",10.4 µM
same,EC50,"Hs-578T, Hs 578T, Breast",15 µM
same,GI50,"Hs-578T, Hs 578T, Breast",14.9 µM
same,IC50,"Hs-578T, Hs 578T, Breast",15 µM
same,EC50,"HuCCT-1, HuCCT1, Liver",24.8 µM
same,GI50,"HuCCT-1, HuCCT1, Liver",24.8 µM
same,IC50,"HuCCT-1, HuCCT1, Liver",24.8 µM
same,EC50,"HuP-T4, HuP-T4, Pancreas",13.7 µM
same,GI50,"HuP-T4, HuP-T4, Pancreas",13.6 µM
same,IC50,"HuP-T4, HuP-T4, Pancreas",13.7 µM
same,EC50,"J82, Bladder",6.22 µM
same,GI50,"J82, Bladder",6.09 µM
same,IC50,"J82, Bladder",6.22 µM
same,EC50,"JAR, Placenta",6.53 µM
same,GI50,"JAR, Placenta",6.49 µM
same,IC50,"JAR, Placenta",6.53 µM
same,EC50,"JEG-3, JEG-3, Placenta",6.5 µM
same,GI50,"JEG-3, JEG-3, Placenta",6.48 µM
same,IC50,"JEG-3, JEG-3, Placenta",6.51 µM
same,EC50,"JIYOYE, Lymphoma",3.55 µM
same,GI50,"JIYOYE, Lymphoma",3.55 µM
same,IC50,"JIYOYE, Lymphoma",3.55 µM
same,EC50,"JeKo-1, JeKo-1, Lymphoma",3.91 µM
same,GI50,"JeKo-1, JeKo-1, Lymphoma",3.91 µM
same,IC50,"JeKo-1, JeKo-1, Lymphoma",3.91 µM
same,EC50,"Jurkat, Leukemia",3.59 µM
same,GI50,"Jurkat, Leukemia",3.58 µM
same,IC50,"Jurkat, Leukemia",3.59 µM
same,EC50,"K562, K562, Leukemia",12.2 µM
same,GI50,"K562, K562, Leukemia",12.2 µM
same,IC50,"K562, K562, Leukemia",12.2 µM
same,EC50,"KATO III, Stomach",10.9 µM
same,GI50,"KATO III, Stomach",11.1 µM
same,IC50,"KATO III, Stomach",11.1 µM
same,EC50,"KHOS-240S, Soft Tissue - Osteosarcoma",4.96 µM
